Results as given in patent US8389468B2, “Approach to the treatment of compartment syndrome” (Lantmannen AS-Faktor AB, priority 2006, dated 2013).
“Also recorded” adds a separate entry of the source.

Legend:
[1] = test system: HSV-1; assay: Immunohistochemical visualization of HSV-1 proteins in brain, rats; format: in vivo, rat; conditions: 1 or 10 pg intranasally twice daily, day 6
Experimental: An alternative explanation to the improved survival of HSV-1 infected animals could be that the treatment with AF-16 prevented the virus from multiplying and/or spreading in the brain. […] Adult rats were infected by having a solution of the herpes simplex virus type 1 (HSV-1; strain 2762, batch 041028; 1.7×10^7 PFU/mL) instilled in their right nostril. Half of the animals received 10 min later 25 pi_ (1 or 10 pg) of AF-16 in their right nostril, and had thereafter the same dose of AF-16 instilled every morning at 8 AM and every night at 6 PM until the experiment was terminated on day 6. The other groups of the HSV-1 infected rats received at the same time intervals 25 pL of the vehicle, PBS. The animals were closely watched for signs of general sickness and of behavioral and motor dysfunction. The animals were sacrificed by an overdose of anesthetics on day 6, the skull opened and the brain removed. The brains, including the olfactory bulbs, were fixed by immersion in buffered formalin for at least a day. The brains were the dissected and divided in several specimens, which were processed for light microscopic investigation after paraffin embedding and sectioning. The sections were processed for routine staining and for immunohistochemical visualization of HSV-1 proteins (FIG. 4). […] Note the distinct staining of the nerve cells (black in FIG. 4a-c).

[2] = test system: intervertebral discs; assay: Injured or loaded intervertebral discs; format: in vivo, rodents, rabbits and pigs
Source text: The intervertebral discs, which separate the vertebral bodies in the spine, adjust their dimensions according to the actual load many times a day. The water content in the avascular nucleus pulposus and the annulus fibrosus in a disc is dependant on the supply of fluid, ions, nutrients and oxygen from adjacent ligaments and from the end plates of the vertebrae (Cf. Holm et al., 2007). Vast products from an avascular disc must pass through the same obstacles prior to reaching vascular systems. Therefore, rodents, rabbits and pigs have been assessed regarding effects of AF protein and of AF peptides with regard to effects on the intervertebral discs when loaded and unloaded. […] It is thus disclosed that the AF compounds are beneficial in reducing the swelling and tissue damage at trauma or deformation and/or excessive load on intervertebral discs.

[3] = test system: implanted tumours; assay: Interstitial fluid pressure (IFP) in implanted tumours; format: in vivo, rodents
Experimental: Tumours, malignant as well as benign, have been implanted subcutaneously and intramuscularly in rodents. Every second animal, having tumours with a diameter ranging from 10 mm to 15 mm, was treated with AF proteins or AF-16, systemically with the aid of subcutaneously implanted Alzet osmotic minipumps, by injections of AF-16 at or into the tumour. In another experiment, the AF-16 peptide was delivered from an implanted Alzet 2001 pump directly onto and/or into the tumour with a fine silicone tube. Additional rats had the AF-protein induced by their feed ort by having AF in egg yolk. For comparison, an equal number of rats received the same treatment but with the vehicle. The interstitial fluid pressure (IFP) in the tumour as well as at its adjacent regions was determined with the aid of a Samba glass fibre pressure sensor (diameter 0.4 mm), with and without a protecting tubing, as well as with equipment enabling determination of the interstitial fluid pressure by the “wick” technique. […] The IFP in the adjacent connective tissue was ranging from 0 to 4 mm Hg, but could occasionally be negative. Tumours in the range of 10-15 mm, and treated with AF-16 as described above, got a reduction of the IFP, which turned reduced to usually 12 mm Hg or less.

For VCHSKTRSNPENNVGL [AF-16], the “prevalence and distribution of HSV-1 proteins in the brain vs vehicle” value [1] was “no obvious difference with regard to the prevalence and distribution of HSV-1 proteins; also recorded: no difference in frequency or distribution of HSV-1 positive brain cells”, the “stiffness of intervertebral connections and deformation induced” value ([2]; after supramaximal loads or trauma, vs vehicle) was “closer to normal” and the “damage to nucleus pulposus (light microscopy)” value ([2]; in vivo) was “less damage to the nucleus pulposus”. For the same sequence, the “swelling and inflammatory reactions of injured intervertebral discs” value ([2]; in vivo) was “reduced the swelling and the inflammatory reactions”, the “inflammatory reaction in tumour (light microscopy)” value ([3]; in vivo) was “reduced the intensity and extent of the inflammatory reaction” and the “interstitial fluid pressure (IFP) in the tumour” value ([3]; tumours 10-15 mm, vehicle in excess of 12) was ≤ 12 mm Hg.
